Data as given in US20240246937A1 (MERCK SHARP & DOHME LLC, priority 2021, published 2024).

target: recombinant IL4I1 (Homo sapiens (Human), UniProt Q96RQ9); assay: IL4I1 Enzymatic Assay (Amplex Red/HRP coupled fluorescence detection of H2O2); type: biochemical; details: 240 min; recombinant IL4I1, four-hour pre-incubation with compound
Procedure: Interleukin 4 inducible protein 1 (IL4I1) is an L-amino oxidase that catalyzes the oxidation of aromatic residues (Phe, Trp and Tyr): L-amino acid+H2O+O2→2-oxo acid+NH3+H2O2. Equal molar of H2O2 and the corresponding alpha-ketoacid are produced when IL4I1 and substrate are added. In this assay, the hydrogen peroxide generated by IL4I1 is then detected through a coupled reaction with Amplex® Red (10-acetyl-3,7-dihydroxyphenoxazine) and horseradish peroxidase (HRP) to produce resorufin product that could be detected in the form of fluorescence signals. The assessment of the inhibitory effect of small molecules (EC50) on IL4I1 is measured by the effectiveness of the compounds to inhibit the production of H2O2.
Using this assay, the potency (EC50) of each compound was determined from a ten-point (1:3 serial dilution) titration curve using the following outlined procedure. To each well of a black flat-bottom Greiner (Cat #781076) 384 well-plate, 25 nL of compound (0.1% DMSO in final assay volume of 25 μL) was dispensed, followed by the addition of 12.5 μL of 1× assay buffer (50 mM Hepes 7.0 and 0.005% Tween20 (Sigma, Cat #P8341; low peroxide grade)) containing 2 nM of recombinant IL4I1 (R&D Systems, Cat #5684-AO-020). Plates were placed in an ambient temperature humidified chamber for a four-hour pre-incubation with compound. Subsequently, each reaction was initiated by the addition of 12.5 μL 1× assay buffer containing 2 mM of each aromatic amino acids (Phe/Tyr/Trp), 0.1 mM Amplex Red and 2 U/mL of HRP. The final reaction in each well of 25 μL consisted of 1 nM of IL4I1, 1 mM of each residues (Phe, Tyr and Trp), 0.05 mM Amplex Red and 1 U/mL of HRP. It should be noted that the concentrations of Amplex Red and HRP used here were in excess such that the conversion of H2O2 to resorufin product occurred instantaneously and was non-rate limiting. Reactions were allowed to proceed for 120 minutes followed by fluorescence readout on a Spectramax with the following set parameters: 544 nm excitation/590 nm emission, 570 nm cutoff (EnVision is an alternative reader). Dose-response curves were generated by plotting percent effect (% product conversion; Y-axis) vs. Log10 compound concentrations (X-axis). EC50 values were calculated using a non-linear regression, four-parameters sigmoidal dose-response model and are shown in Potency Table 1.

recombinant IL4I1, sequence (Q96RQ9 22-567): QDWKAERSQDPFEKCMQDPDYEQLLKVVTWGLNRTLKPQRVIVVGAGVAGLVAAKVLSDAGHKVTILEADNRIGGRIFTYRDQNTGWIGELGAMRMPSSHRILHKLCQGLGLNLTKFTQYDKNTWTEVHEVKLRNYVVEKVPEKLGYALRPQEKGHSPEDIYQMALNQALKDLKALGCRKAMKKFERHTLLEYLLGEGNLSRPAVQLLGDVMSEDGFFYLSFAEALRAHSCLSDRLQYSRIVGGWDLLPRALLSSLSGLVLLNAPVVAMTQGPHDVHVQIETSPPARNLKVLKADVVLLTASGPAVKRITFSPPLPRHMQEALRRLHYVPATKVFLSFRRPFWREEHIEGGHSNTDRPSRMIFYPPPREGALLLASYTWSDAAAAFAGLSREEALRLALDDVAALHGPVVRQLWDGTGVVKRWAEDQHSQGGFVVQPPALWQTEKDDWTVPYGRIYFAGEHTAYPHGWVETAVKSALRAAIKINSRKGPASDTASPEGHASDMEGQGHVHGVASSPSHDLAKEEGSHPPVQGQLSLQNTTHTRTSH

| SMILES | EC50 [nM] |
| --- | --- |
| O=c1c(=O)n(C23CC(C2)C3)ccn1Cc1ccc(-n2nccn2)nc1 [Example 412, 1-((6-(2H-1,2,3-triazol-2-yl)pyridin-3-yl)methyl)-4-(bicyclo[1.1.1]pentan-1-yl)-1,4-dihydropyrazine-2,3-dione] | 19 |
| C[C@@H](c1nnc(-c2ccccc2)s1)N1CCN(C2CCC2)C(=O)C1=O [Example 356, (S)-1-cyclobutyl-4-(1-(5-phenyl-1,3,4-thiadiazol-2-yl)ethyl)piperazine-2,3-dione] | 28 |
| CC1(N2CCN(CC34CC(c5ccccc5)(C3)C4(F)F)C(=O)C2=O)CCC1 [Example 190, 1-((2,2-difluoro-3-phenylbicyclo[1.1.1]pentan-1-yl)methyl)-4-(1-methylcyclobutyl)piperazine-2,3-dione] | 31 |
| O=c1c(=O)n(C2CCC2)ccn1Cc1ccc(-c2ccccc2)nn1 [Example 137, 1-cyclobutyl-4-((6-phenylpyridazin-3-yl)methyl)-1,4-dihydropyrazine-2,3-dione] | 6 |
| O=C1C(=O)N(C2CCC2)CCN1Cc1cnc(-c2ccccc2)nc1 [Example 107, 1-cyclobutyl-4-((2-phenylpyrimidin-5-yl)methyl)piperazine-2,3-dione] | 13 |
| O=C1C(=O)N(C2CCCC2)CCN1Cc1ccc(-c2ccccc2)cn1 [Example 98, 1-cyclopentyl-4-((5-phenylpyridin-2-yl)methyl)piperazine-2,3-dione] | 12 |
| O=C1C(=O)N([C@@H]2CC[C@@H](c3ccccc3)C2)CCN1Cc1nnc(-c2ccccc2)s1 (single isomer, unassigned) [Example 440A, (R or S, R or S)-1-((5-phenyl-1,3,4-thiadiazol-2-yl)methyl)-4-(3-phenylcyclopentyl)piperazine-2,3-dione] | 5 |
| O=c1c(=O)n(C23CC(C2)C3)ccn1Cc1cc(-c2ccccn2)no1 [Example 172, 1-(bicyclo[1.1.1]pentan-1-yl)-4-((3-(pyridin-2-yl)isoxazol-5-yl)methyl)-1,4-dihydropyrazine-2,3-dione] | 7 |
| O=C1C(=O)N(C2CCCC2)CCN1Cc1ccc(-c2cn[nH]c2)nc1 [Example 24, 1-((6-(1H-pyrazol-4-yl)pyridin-3-yl)methyl)-4-cyclopentylpiperazine-2,3-dione] | 30 |
| N#CC1CC(N2CCN(Cc3nnc(-c4ccccc4)s3)C(=O)C2=O)C1 (stereo not drawn) [Example 285, 3-(2,3-dioxo-4-((5-phenyl-1,3,4-thiadiazol-2-yl)methyl)piperazin-1-yl)cyclobutane-1-carbonitrile] | 28 |
| O=C1C(=O)N(C2CCC2)CCN1Cc1ccc(-n2nccn2)nn1 [Example 398, 1-((6-(2H-1,2,3-triazol-2-yl)pyridazin-3-yl)methyl)-4-cyclobutylpiperazine-2,3-dione] | 22 |
| O=C1C(=O)N(C2CCCC2)CCN1Cc1cnc(-c2ccccc2)nn1 [Example 103, 1-cyclopentyl-4-((3-phenyl-1,2,4-triazin-6-yl)methyl)piperazine-2,3-dione] | 11 |
| O=C1C(=O)N(C23CC(C2)C3)CCN1Cc1cnc(-c2ccccc2)cn1 [Example 112, 1-(bicyclo[1.1.1]pentan-1-yl)-4-((5-phenylpyrazin-2-yl)methyl)piperazine-2,3-dione] | 7 |
| O=C1C(=O)N(C2CCC2)CCN1Cc1ncc(-c2ccccc2)cc1F [Example 106, 1-cyclobutyl-4-((3-fluoro-5-phenylpyridin-2-yl)methyl)piperazine-2,3-dione] | 7 |
| CC1(n2ccn(Cc3ccc(-n4nccn4)nc3)c(=O)c2=O)CC1 [Example 415, 1-((6-(2H-1,2,3-triazol-2-yl)pyridin-3-yl)methyl)-4-(1-methylcyclopropyl)-1,4-dihydropyrazine-2,3-dione] | 138 |
| O=C1C(=O)N(C23CCC(CC2=O)C3)CCN1Cc1nnc(-c2ccccc2)s1 (stereo not drawn) [Example 301, 1-(2-oxobicyclo[2.2.1]heptan-1-yl)-4-((5-phenyl-1,3,4-thiadiazol-2-yl)methyl)piperazine-2,3-dione] | 67 |
| O=c1c(=O)n([C@H]2C[C@H]3C[C@H]3C2)ccn1Cc1nnc(-c2ccc(F)cc2)s1 [Example 41, 1-((cis)-bicyclo[3.1.0]hexan-3-yl)-4-((5-(4-fluorophenyl)-1,3,4-thiadiazol-2-yl)methyl)-1,4-dihydropyrazine-2,3-dione] | 2 |

| SMILES | EC50 [nM] |
| --- | --- |
| O=C1C(=O)N(C2CCCC2)CCN1Cc1cc(-c2ccccc2F)no1 [Example 154, 1-cyclopentyl-4-((3-(2-fluorophenyl)isoxazol-5-yl)methyl)piperazine-2,3-dione] | 3 |
| O=c1c(=O)n(C2(CF)CC2)ccn1Cc1cc(-c2ccccn2)on1 [Example 238, 1-(1-(fluoromethyl)cyclopropyl)-4-((5-(pyridin-2-yl)isoxazol-3-yl)methyl)-1,4-dihydropyrazine-2,3-dione] | 29 |
| N#CC1(n2ccn(Cc3cc(-c4cccnc4)no3)c(=O)c2=O)CC1 [Example 222, 1-(2,3-dioxo-4-((3-(pyridin-3-yl)isoxazol-5-yl)methyl)-3,4-dihydropyrazin-1(2H)-yl)cyclopropane-1-carbonitrile] | 316 |
| O=c1c(=O)n(C2CCC2)ccn1Cc1ccc(-c2nccs2)nn1 [Example 367, 1-cyclobutyl-4-((6-(thiazol-2-yl)pyridazin-3-yl)methyl)-1,4-dihydropyrazine-2,3-dione] | 9 |
| O=C1C(=O)N(C2CCC2)CCN1Cc1ccc(-n2ccnn2)nc1 [Example 109, 1-((6-(1H-1,2,3-triazol-1-yl)pyridin-3-yl)methyl)-4-cyclobutylpiperazine-2,3-dione] | 24 |
| O=C1C(=O)N(C23CC(F)(C2)C3)CCN1Cc1cc(-c2ccccn2)on1 [Example 252, 1-(3-fluorobicyclo[1.1.1]pentan-1-yl)-4-((5-(pyridin-2-yl)isoxazol-3-yl)methyl)piperazine-2,3-dione] | 38 |
| O=c1c(=O)n(C23CC(C2)C3)ccn1Cc1cnc(-c2ccccc2F)cn1 [Example 75, 1-(bicyclo[1.1.1]pentan-1-yl)-4-((5-(2-fluorophenyl)pyrazin-2-yl)methyl)-1,4-dihydropyrazine-2,3-dione] | 7 |
| CC1(n2ccn(Cc3ccc(-c4ccccc4F)nn3)c(=O)c2=O)CC1 [Example 197, 1-((6-(2-fluorophenyl)pyridazin-3-yl)methyl)-4-(1-methylcyclopropyl)-1,4-dihydropyrazine-2,3-dione] | 33 |
| O=c1c(=O)n(C23CC(F)(C2)C3)ccn1Cc1ccc(-c2cccnc2)nn1 [Example 215, 1-(3-fluorobicyclo[1.1.1]pentan-1-yl)-4-((6-(pyridin-3-yl)pyridazin-3-yl)methyl)-1,4-dihydropyrazine-2,3-dione] | 57 |
| O=C1C(=O)N(C23CC(F)(C2)C3)CCN1Cc1cn(-c2ccccn2)nn1 [Example 259, 1-(3-fluorobicyclo[1.1.1]pentan-1-yl)-4-((1-(pyridin-2-yl)-1H-1,2,3-triazol-4-yl)methyl)piperazine-2,3-dione] | 78 |
| O=C1C(=O)N(C23CC(F)(C2)C3)CCN1Cc1cc(-c2cccnc2)on1 [Example 256, 1-(3-fluorobicyclo[1.1.1]pentan-1-yl)-4-((5-(pyridin-3-yl)isoxazol-3-yl)methyl)piperazine-2,3-dione] | 533 |
| O=C1C(=O)N(C2CCCC2)CCN1Cc1nnc(N2CCCC2)s1 [Example 310, 1-cyclopentyl-4-((5-(pyrrolidin-1-yl)-1,3,4-thiadiazol-2-yl)methyl)piperazine-2,3-dione] | 41 |
| O=c1c(=O)n(C2CCCC2)ccn1Cc1ccc(-n2ccnn2)nn1 [Example 328, 1-((6-(1H-1,2,3-triazol-1-yl)pyridazin-3-yl)methyl)-4-cyclopentyl-1,4-dihydropyrazine-2,3-dione] | 7 |
| O=C1C(=O)N(C2CCCC2)CCN1Cc1ccc(-c2cccnc2)nn1 [Example 37, 1-cyclopentyl-4-((6-(pyridin-3-yl)pyridazin-3-yl)methyl)piperazine-2,3-dione] | 18 |
| O=C1C(=O)N(C2CCCC2)CCN1Cc1ccc(N2CCCC2)nn1 [Example 314, 1-cyclopentyl-4-((6-(pyrrolidin-1-yl)pyridazin-3-yl)methyl)piperazine-2,3-dione] | 43 |
| O=c1c(=O)n(C2CCC2)ccn1Cc1ccc(-n2ccnc2)nn1 [Example 330, 1-((6-(1H-imidazol-1-yl)pyridazin-3-yl)methyl)-4-cyclobutyl-1,4-dihydropyrazine-2,3-dione] | 16 |
